Measured values as given in US20050192347A1, “Urea and thiourea compounds and compositions for cholesterol management and related uses” (priority 2003, published 2005).

Assays:
obese female Zucker rats = assay: Oral daily treatment of obese female Zucker rats for fourteen days: serum lipids, glycemic control indicators, body weight; format: in vivo, rat; conditions: 14 days; for Glucose, Percent Change from Pre-treatment: blood, 6-hour fast; for Glucose, Percent Change from Pre-treatment / BHA, Percent Change from Pre-treatment / NEFA, Percent Change from Pre-treatment / HDL-C/nonHDL-C / HDL-C, Percent Change from Pre-treatment / Insulin, Percent Change from Pre-treatment / Non HDL-C, Percent Change from Pre-treatment / TC, Percent Change from Pre-treatment / TG, Percent Change from Pre-treatment: oral; for % wt. gain: oral gavage; for BHA, Percent Change from Pre-treatment: serum beta hydroxy butyric acid; for NEFA, Percent Change from Pre-treatment: serum non-esterified fatty acids; for HDL-C/nonHDL-C: serum ratio; for HDL-C, Percent Change from Pre-treatment / Insulin, Percent Change from Pre-treatment / Non HDL-C, Percent Change from Pre-treatment / TC, Percent Change from Pre-treatment / TG, Percent Change from Pre-treatment: serum
Protocol: In a number of different experiments, illustrative compounds A and A1 of the invention were administered daily at a dose of up to 100 mg/kg to chow-fed obese female Zucker rats for fourteen days in the morning by oral gavage in 1.5% carboxymethylcellulose/0.2% Tween-20 or 20% ethanol/80% polyethylene glycol (dosing vehicles). Animals were weighed daily. Animals were allowed free access to rodent chow and water throughout the study except on days of blood sampling where food was restricted for six hours prior to blood sampling. Blood glucose was determined after the 6-hour fast in the afternoon without anesthesia from a tail vein. Serum was also prepared from pretreatment blood samples subsequently obtained from the orbital venous plexus (with O2/CO2 anesthesia) and following the fourteenth dose at sacrifice from the heart following O2/CO2 anesthesia. Serums were assayed for lipoprotein cholesterol profiles, triglycerides, total cholesterol, NonHDL cholesterol, HDL cholesterol, the ratio of HDL cholesterol to that of Non-HDL cholesterol, insulin, non-esterified fatty acids, and beta hydroxy butyric acid. The percent body weight gain and the ratio of liver to body weight was also determined. These are shown as absolute values or as a percent change of the pretreatment values in Table 4. [drawing 300]

primary rat hepatocytes = assay: Inhibition of lipid synthesis ([1-14C]-acetate incorporation) in primary cultures of rat hepatocytes; format: cell-based; conditions: 0-300 μM
Protocol: Compounds were tested for inhibition of lipid synthesis in primary cultures of rat hepatocytes. Male Sprague-Dawley rats were anesthetized with intraperitoneal injection of sodium pentobarbital (80 mg/kg). Rat hepatocytes were isolated essentially as described by the method of Seglen (Seglen, P. O. Hepatocyte suspensions and cultures as tools in experimental carcinogenesis. J. Toxicol. Environ. Health 1979, 5, 551-560). Hepatocytes were suspended in Dulbecco's Modified Eagles Medium containing 25 mM D-glucose, 14 mM HEPES, 5 mM L-glutamine, 5 mM leucine, 5 mM alanine, 10 mM lactate, 1 mM pyruvate, 0.2% bovine serum albumin, 17.4 mM non-essential amino acids, 20% fetal bovine serum, 100 nM insulin and 20 μg/mL gentamycin) and plated at a density of 1.5×10^5 cells/cm^2 on collagen-coated 96-well plates. Four hours after plating, media was replaced with the same media without serum. Cells were grown overnight to allow formation of monolayer cultures. Lipid synthesis incubation conditions were initially assessed to ensure the linearity of [1-^14C]-acetate incorporation into hepatocyte lipids for up to 4 hours. Hepatocyte lipid synthesis inhibitory activity was assessed during incubations in the presence of 0.25 μCi [1-^14C]-acetate/well (final radiospecific activity in assay is 1 Ci/mol) and 0, 1, 3, 10, 30, 100 or 300 μM of compounds for 4 hours. At the end of the 4-hour incubation period, medium was discarded and cells were washed twice with ice-cold phosphate buffered saline and stored frozen prior to analysis. To determine total lipid synthesis, 170 μl of MicroScint-E® and 50 μl water was added to each well to extract and partition the lipid soluble products to the upper organic phase containing the scintillant. Lipid radioactivity was assessed by scintillation spectroscopy in a Packard TopCount NXT.

[1] = Rattus norvegicus, Hepatocyte, 4 h

CC(C)(CO)CCCCNC(=O)NCCCCC(C)(C)CO [A, 1,3-bis-(6-hydroxy-5,5-dimethyl-hexyl)-urea] was tested, and the “Glucose, Percent Change from Pre-treatment” value (from here on “Glucose, Percent Change”) (obese female Zucker rats; 100 mg/kg/day) was 2%, the “% wt. gain” value (obese female Zucker rats; 100 mg/kg/day) was 4% and the “BHA, Percent Change from Pre-treatment” value (obese female Zucker rats; 100 mg/kg/day) was 172%. For the same molecule, the “NEFA, Percent Change from Pre-treatment” value (obese female Zucker rats; 100 mg/kg/day) was 8%, the HDL-C/nonHDL-C (obese female Zucker rats; 100 mg/kg/day) was 2.7 and the “HDL-C, Percent Change from Pre-treatment” value (obese female Zucker rats; 100 mg/kg/day) was 92%. For the same molecule, the “Insulin, Percent Change from Pre-treatment” value (from here on “Insulin, Percent Change”) (obese female Zucker rats; 100 mg/kg/day) was 60%, the “Non HDL-C, Percent Change from Pre-treatment” value (from here on “Non HDL-C, Percent Change”) (obese female Zucker rats; 100 mg/kg/day) was −5% and the “TC, Percent Change from Pre-treatment” value (obese female Zucker rats; 100 mg/kg/day) was 50%. The “TG, Percent Change from Pre-treatment” value (obese female Zucker rats; 100 mg/kg/day) was −31%.
In the case of CC(C)(CO)CCCCNC(=O)NCCCC(C)(C)CO [Compound 213, 1-(5-Hydroxy-4,4-dimethylpentyl)-3-(6-hydroxy-5,5-dimethylhexyl)urea], the IC50 (primary rat hepatocytes; [1]) is reported as 34 µM.
In the case of CC(C)(CO)CCCCNC(=O)NCCCc1ccccc1 [Compound 216, 1-(6-Hydroxy-5,5-dimethylhexyl)-3-(3-phenylpropyl)urea], the IC50 (primary rat hepatocytes; [1]) is reported as 51 µM.
In the case of CC(C)(CO)CCCCNC(=O)NCCCCc1ccccc1 [Compound 217, 1-(6-Hydroxy-5,5-dimethylhexyl)-3-(4-phenylbutyl)urea], the IC50 (primary rat hepatocytes; [1]) is reported as 221 µM.
For CCOC(=O)CCCCCNC(=O)NCCCCC(C)(C)CO [Compound 219, Ethyl 6-(3-(6-hydroxy-5,5-dimethylhexyl)ureido)hexanoate], the IC50 (primary rat hepatocytes; [1]) was 82 µM.
CC(C)(CO)CCCCNC(=O)NCCCCC(C)(CO)c1ccccc1 (centres unmarked) [Compound 220, 1-(6-Hydroxy-5,5-dimethylhexyl)-3-(6-hydroxy-5-methyl-5-phenylhexyl)urea] was tested, and the IC50 (primary rat hepatocytes; [1]) was 8.8 µM.
In the case of CC(CO)(CCCCNC(=O)NCCc1ccccc1)c1ccccc1 (centres unmarked) [Compound 222, 1-(6-Hydroxy-5-methyl-5-phenylhexyl)-3-phenethylurea], the IC50 (primary rat hepatocytes; [1]) is reported as 264 µM.
Work on CC(CO)(CCCCNC(=O)NCCCc1ccccc1)c1ccccc1 (centres unmarked) [Compound 223, 1-(6-Hydroxy-5-methyl-5-phenylhexyl)-3-(3-phenylpropyl)urea] yielded an IC50 (primary rat hepatocytes; 4 hours) of 77 µM and an IC50 (primary rat hepatocytes; [1]) of 137 µM.
CCOC(=O)CCCCCNC(=O)NCCCCC(C)(CO)c1ccccc1 (centres unmarked) [Compound 225, Ethyl 6-(3-(6-hydroxy-5-methyl-5-phenylhexyl)ureido)hexanoate] was tested, and the IC50 (primary rat hepatocytes; [1]) was 128 µM.
CC(CO)(CCCCCNC(=O)NCCCCC(C)(CO)c1ccccc1)c1ccccc1 (centres unmarked) [Compound 226, 1-(6-Hydroxy-5-methyl-5-phenylhexyl)-3-(7-hydroxy-6-methyl-6-phenylheptyl)urea] gave an IC50 (primary rat hepatocytes; [1]) of 88 µM.
In the case of CC(CO)(CCCCCNC(=O)NCCc1ccccc1)c1ccccc1 (centres unmarked) [Compound 227, 1-(7-Hydroxy-6-methyl-6-phenylheptyl)-3-phenethylurea], the IC50 (primary rat hepatocytes; [1]) is reported as 223 µM.
For CC(CO)(CCCCCNC(=O)NCCCc1ccccc1)c1ccccc1 (centres unmarked) [Compound 228, 1-(7-hydroxy-6-methyl-6-phenylheptyl)-3-(3-phenylpropyl)urea], the IC50 (primary rat hepatocytes; [1]) was 101 µM.
Molecule COC(=O)CCCNC(=O)NCCCCCC(C)(CO)c1ccccc1 (centres unmarked) [Compound 230] has an IC50 (primary rat hepatocytes; [1]) of 103 µM.
CC(CO)(CCCCCNC(=O)NCCCCCC(C)(CO)c1ccccc1)c1ccccc1 (centres unmarked) [Compound 231, 1,3-Bis(7-hydroxy-6-methyl-6-phenylheptyl)urea] was tested, and the IC50 (primary rat hepatocytes; [1]) was 39 µM.
With CC(C)(CO)CCCCNC(=S)NCCCCC(C)(C)CO [Compound A1, 1,3-bis-(6-hydroxy-5,5-dimethylhexyl)-thiourea] the “Glucose, Percent Change” value (obese female Zucker rats; 30 mg/kg/day) was −4%, the “Glucose, Percent Change” value (obese female Zucker rats; 100 mg/kg/day) was −15% and the “% wt. gain” value (obese female Zucker rats; 30 mg/kg/day) was 10%. The “% wt. gain” value (obese female Zucker rats; 100 mg/kg/day) was 7%, the “BHA, Percent Change from Pre-treatment” value (obese female Zucker rats; 30 mg/kg/day) was 283% and the “BHA, Percent Change from Pre-treatment” value (obese female Zucker rats; 100 mg/kg/day) was 305%. The “NEFA, Percent Change from Pre-treatment” value (obese female Zucker rats; 30 mg/kg/day) was 11%, the “NEFA, Percent Change from Pre-treatment” value (obese female Zucker rats; 100 mg/kg/day) was 34% and the HDL-C/nonHDL-C (obese female Zucker rats; 30 mg/kg/day) was 2.0. For the same molecule, the HDL-C/nonHDL-C (obese female Zucker rats; 100 mg/kg/day) was 1.3, the “HDL-C, Percent Change from Pre-treatment” value (obese female Zucker rats; 30 mg/kg/day) was −11% and the “Insulin, Percent Change” value (obese female Zucker rats; 30 mg/kg/day) was −29%. For the same molecule, the “Non HDL-C, Percent Change” value (obese female Zucker rats; 30 mg/kg/day) was 32%, the “TC, Percent Change from Pre-treatment” value (obese female Zucker rats; 30 mg/kg/day) was −9% and the “TG, Percent Change from Pre-treatment” value (obese female Zucker rats; 30 mg/kg/day) was 7%. For the same molecule, the “HDL-C, Percent Change from Pre-treatment” value (obese female Zucker rats; 100 mg/kg/day) was 2%, the “Insulin, Percent Change” value (obese female Zucker rats; 100 mg/kg/day) was 10% and the “Non HDL-C, Percent Change” value (obese female Zucker rats; 100 mg/kg/day) was −29%. The “TC, Percent Change from Pre-treatment” value (obese female Zucker rats; 100 mg/kg/day) was −7% and the “TG, Percent Change from Pre-treatment” value (obese female Zucker rats; 100 mg/kg/day) was −15%.
